The structures appear in SMILES notation.

Assay type in all cases: in vivo
Test [1] relates to Nicotiana benthamiana. The test is described as follows: Test Example 5: growth promotion under low-temperature stress by hydroponics of Nicotiana benthamiana, 1 ppm. The note with it: 1 ppm in medium, low-temperature stress 7 days at 1.5±1.0° C., green leaf area 3 days later, equation (1). An outline of the steps:
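Seeds were grown in half-strength Murashige–Skoog medium (pH 5.8) containing 1 ppm compound for 7 days at 22 °C, then chilled 7 days at 1.5±1.0 °C and recovered 3 days at 22 °C. Green leaf area was imaged. Relative leaf area = 100×(treated − untreated)/(unstressed untreated − stressed untreated).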

For test [2], the system named is Rice (variety: Nipponbare). Briefly: Test Example 3: promotion of root growth by hydroponics of rice, 0.1 ppm. The following applies: Oryza sativa, hydroponic solution containing the test compound at 0.1 ppm, average of 4 or 5 individuals, read-out: Relative value of length of seminal root (%-untreated control plot). The method, boiled down:
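Surface-sterilised Nipponbare seeds were germinated 3 days in the dark at 28 °C in ¼-strength Hoagland solution containing 0.1 ppm compound; DMSO-only solution served as control. Seedlings were then grown 3 days hydroponically at 26 °C, 4,000 lux, 16 h day. Seminal root length was measured and averaged over 4–5 plants.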

Test [3] relates to Corn seeds (variety: Pioneer 120 31P41). Briefly: Test Example 14: growth promotion under low-temperature stress by soil drench treatment of corn. The following applies: Zea mays, 120 h, soil drench 20 ml, low-temperature stress 5 days at 2.5° C., health score 0-5, average of 4 individuals, read-out: Relative value of score (%- untreated control plot); for change in vivo at 10 ppm: concentration tested 10 ppm; for change in vivo at 0.3 ppm: concentration tested 0.3 ppm; for change in vivo at 1 ppm: concentration tested 1 ppm. The protocol: Test for Evaluating Growth Promotion Under Low-Temperature Stress by Soil Drench Treatment of Corn
Corn seeds (variety: Pioneer 120 31P41) were seeded in a culture soil (Aisai) in a plastic pot (φ55 mm×height of 58 mm), and cultivated for 7 days at 20-25° C., an illuminance of about 5,000 lux, and a day length of 16 hours.
A DMSO solution, which contained one of the compounds 1 to 9, 16, 17, 20, 23, 24, 28 to 32, 34, 45, 48, 50, 82 and 85 of the present invention at a concentration of 1,000-fold concentration of each test concentration, was prepared, and then diluted with distilled water to obtain each test solution. After that, 20 ml of the obtained test solution was used to perform soil drench treatment on the foot of the test plants. The test plants were cultivated for 2 days under the conditions of a temperature of 27° C., a humidity of 40-80%, an illuminance of about 5,000 lux, and a day length of 16 hours. This was used as a test plot treated with the compound. A plot having undergone the soil drench treatment with 20 ml of a 0.1% DMSO aqueous solution instead of the above DMSO solution containing the compound was used as an untreated control plot.
The plants having undergone the soil drench treatment were cultivated for 5 days under the conditions of a temperature of 2.5° C., a humidity of 40-80%, an illuminance of about 5,000 lux, and a day length of 16 hours, thereby exposing to low-temperature stress. After the exposure to the low-temperature stress, the plants were cultivated for 4 days under the conditions of a temperature of 27° C., a humidity of 40-80%, an illuminance of about 5,000 lux, and a day length of 16 hours.
After the cultivation, the health of each plant was scored according to the following evaluation index.
5: 4 or more leaves in which ⅔ or more of the area was healthy
4: 3 leaves in which ⅔ or more of the area was healthy
3: 2 leaves in which ⅔ or more of the area was healthy
2: 1 leaf in which ⅔ or more of the area was healthy
1: No leaf in which ⅔ or more of the area was healthy
An average of the scores of the health of 4 individuals was determined.

The subject of test [4] is Rice (variety: Nipponbare). Briefly: Test Example 1: promotion of root growth by hydroponics of rice, 10 ppm. The following applies: Oryza sativa, hydroponic solution containing the test compound at 10 ppm, average of 4 or 5 individuals, read-out: Relative value of length of seminal root (%-untreated control plot). An outline of the steps: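 Surface-sterilised seeds germinated 3 days in the dark at 28° C in hydroponic solution with compound at 10 ppm, then grown 3 days hydroponically with compound at 10 ppm (26° C, 4,000 lux, 16 h day, 50% humidity). Seminal root length measured by image analysis, averaged over 4 or 5 plants per plot.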

Test [5] concerns Nicotiana benthamiana. The test is described as follows: Test Example 6: growth promotion under low-temperature stress by hydroponics of Nicotiana benthamiana, 0.1 ppm. The note with it: 0.1 ppm in medium, low-temperature stress 7 days at 1.5±1.0° C., green leaf area 3 days later, equation (1). The protocol:
Test for Evaluating Growth Promotion Under Low-Temperature Stress by Hydroponics of Nicotiana benthamiana
A DMSO solution, which contained one of the compounds 3, 7, 14, 16, 36, 39, 43, 45, 50, 52, 53, 54, 56, 57, 62, 63, 64, 65, 68, 69, 70, 71, 73, 74, 76, 77, 79, 80, 81, 84, 85, 86 and 87 of the present invention at a concentration of 100 ppm, was prepared. The DMSO solution of the compound of the present invention was added at a volume ratio of 1/1,000 to the Murashige•Scoog medium of a ½-fold concentration for the Murashige•Scoog medium (a medium containing 2.3 g of mixed salts (manufactured by Wako Pure Chemical Industries, Ltd.), 200 mg of Myo-inositol (manufactured by Sigma-Aldrich Co. LLC.), 2 mg of nicotinic acid (manufactured by Wako Pure Chemical Industries, Ltd.), 2 mg of pyridoxine hydrochloride (manufactured by Wako Pure Chemical Industries, Ltd.), 20 mg of thiamine hydrochloride (manufactured by Wako Pure Chemical Industries, Ltd.), 20 g of sucrose (manufactured by Wako Pure Chemical Industries, Ltd.), and 1 g of MES (manufactured by DOJINDO LABORATORIES) per 1 L of water and having pH adjusted to 5.8), thereby preparing a medium containing the compound of the present invention at a concentration of 0.1 ppm.
Seeds of Nicotiana benthamiana were seeded in the 5 μL of the medium and cultured overnight at 22° C. Thereafter, 45 μL of the medium containing the compound of the present invention at a concentration of 0.1 ppm was added thereto, and the seeds are cultivated for 7 days at 22° C., an illuminance of 4,000 lux, and a day length of 16 hours, and the nursery plants raised from the Nicotiana benthamiana were treated with the compound. Moreover, instead of the above medium a test plot, which was obtained by performing the same treatment by using a medium prepared by adding DMSO to the Murashige•Scoog medium of ½-fold concentration at a volume ratio of 1/1,000, was used as a control plot not treated with the compound.
The nursery plants of the Nicotiana benthamiana treated with the compound were subjected to low-temperature treatment by being cultivated for 7 days at 1.5±1.0° C., an illuminance of 2,000 lux, and a day length of 16 hours.
The nursery plants of the Nicotiana benthamiana having undergone the low-temperature stress treatment were cultivated for 3 days at 22° C., an illuminance of 4,000 lux, and a day length of 16 hours. Thereafter, the area of green leaf was quantified by Scanalyzer HTS (manufactured by LemnaTec GmbH). Moreover, the value of the control plot not treated with the compound that had not yet been subjected to the low-temperature stress treatment was measured in the same manner. A value of a relative leaf area was calculated based on the following equation (1), and if the value of a relative leaf area was 5 or greater, the compound was evaluated to have a mitigating effect. As a result of the evaluation, it was confirmed that when the plant was treated with one of the compounds 3, 7, 14, 16, 36, 39, 43, 45, 50, 52, 53, 54, 56, 57, 62, 63, 64, 65, 68, 69, 70, 71, 73, 74, 76, 77, 79, 80, 81, 84, 85, 86 and 87 of the present invention at 0.1 ppm, the value of a relative leaf area was 5 or greater, compared to the area of green leaf of the control plot not treated with compound. Accordingly, it was confirmed that the treatment using the compound of the present invention brings about a growth promotion effect.
Relative leaf area=100*(a green area of a plot treated with the compound of the present invention−a green area of a control plot not treated with the compound of the present invention)/(a green area of a control plot not treated with the compound of the present invention that has not yet been subjected to low-temperature stress treatment−green area of a control plot not treated with the compound of the present invention) Equation (1): […]

For the molecule `O=C(O)c1cc2cc(C(F)(F)F)ccc2o1` [Compound 2, 5-trifluoromethylbenzofuran-2-carboxylic acid], the relative leaf area (% of untreated control) at 1 ppm with Nicotiana benthamiana [1] is not below 5%. In addition, the change in vivo at 0.1 ppm in test [2] was more than 5%. Besides, the change in vivo at 10 ppm in test [3] is more than 5%.
For the molecule `CCOC(=O)c1cc2cc(C(F)(F)F)ccc2o1` [Compound 4, ethyl 5-trifluorometethylbenzofuran-2-carboxylate], the change in vivo at 10 ppm in test [4] and in test [3] was more than 5% each time. The relative leaf area (% of untreated control) at 1 ppm in the test on Nicotiana benthamiana [1] was not below 5%.
With `COc1ccc(NC(=O)c2cc3cc(C(F)(F)F)ccc3o2)c(OC)c1` [Compound 5, N-(2,4-dimethoxyphenyl)-5-trifluoromethylbenzofuran-2-carboxamide], the change in vivo at 10 ppm in test [4] is more than 5%. Further, the relative leaf area (% of untreated control) at 1 ppm in the test on Nicotiana benthamiana [1] was not below 5%. Also, the change in vivo at 0.3 ppm in test [3] is more than 5%.
Molecule `O=C(O)c1cc2cc(C(F)(F)F)ccc2[nH]1` [Compound 7, 5-trifluoromethylindole-2-carboxylic acid] showed a relative leaf area (% of untreated control) at 0.1 ppm in the test on Nicotiana benthamiana [5] not below 5%. In addition, in test [2], the change in vivo at 0.1 ppm is more than 5%. Besides, in test [3], the change in vivo at 1 ppm was more than 5%.
`COC(=O)c1nc2ccccc2o1` [Compound 16, methyl benzoxazole-2-carboxylate] came in with a relative leaf area (% of untreated control) at 0.1 ppm with Nicotiana benthamiana [5] not below 5%. Further, the change in vivo at 0.1 ppm in test [2] is more than 5%. Moreover, the change in vivo at 1 ppm in test [3] was more than 5%.
As to `O=C(O)c1nc2cc(C(F)(F)F)ccc2[nH]1` [Compound 20, 5-(trifluoromethyl)-benzimidazole-2-carboxylic acid], in the test on Nicotiana benthamiana [1], the relative leaf area (% of untreated control) at 1 ppm is not below 5%. For the same molecule, the change in vivo at 0.1 ppm in test [2] was more than 5%. Further, the change in vivo at 0.3 ppm in test [3] was more than 5%.

The values are drawn from patent US20150289512A1, “METHOD FOR PROMOTING PLANT GROWTH” (SUMITOMO CHEMICAL COMPANY, LIMITED, priority 2012, published 2015).
